# Measurements from PubChem BioAssay (NCI).
#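 Grown in 96-well plates, cells were treated for 48 hours with each compound at five concentrations. Insufficient inhibition: endpoint recorded as highest concentration tested. The concentration for 50% growth inhibition is given as GI50. TGI: concentration producing complete growth inhibition.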
# What was measured:
# Test in all cases: growth of human tumour cells (NCI), 48 h
# [1] = system: OVCAR-4 ovarian
# [2] = system: HCC-2998 colon
# [3] = system: ACHN renal
# [4] = system: DU-145 prostate
# [5] = system: U251 CNS
# [6] = system: HT29 colon
# [7] = system: SW-620 colon
# [8] = system: MDA-MB-468 breast
# [9] = system: NCI-H460 lung
# [10] = system: NCI-H23 lung
# [11] = system: HCT-15 colon
# [12] = system: SK-MEL-5 melanoma
# [13] = system: UO-31 renal
# [14] = system: RPMI-8226 leukemia
# [15] = system: A549 NSCLC
# [16] = system: SK-MEL-2 melanoma
# [17] = system: K-562 leukemia
# [18] = system: A498 renal
# [19] = system: TK-10 renal
# [20] = system: 786-0 renal
# [21] = system: NCI-H226 lung
# [22] = system: PC-3 prostate
# [23] = system: SF-295 CNS
# [24] = system: UACC-62 melanoma
# [25] = system: T-47D breast
# [26] = system: HS 578T breast
# [27] = system: RXF 393 renal
# [28] = system: OVCAR-5 ovarian
# [29] = system: KM12 colon
# [30] = system: SK-OV-3 ovarian
# [31] = system: LOX IMVI melanoma
# [32] = system: OVCAR-8 ovarian
# [33] = system: NCI-H522 lung
# [34] = system: SK-MEL-28 melanoma
# [35] = system: HL-60(TB) leukemia
# [36] = system: HOP-62 NSCLC
# [37] = system: HOP-92 NSCLC
# [38] = system: HCT-116 colon
# [39] = system: MALME-3M melanoma
# [40] = system: SR leukemia
# [41] = system: MDA-MB-435
# [42] = system: SNB-19 CNS
# [43] = system: MCF7 breast
# [44] = system: M14 melanoma
# [45] = system: UACC-257 melanoma
# [46] = system: IGROV1 ovarian
# [47] = system: OVCAR-3 ovarian
# [48] = system: SN12C renal
# [49] = system: BT-549 breast
# [50] = system: CCRF-CEM leukemia
# [51] = system: COLO 205 colon
# [52] = system: CAKI-1 renal
# [53] = system: SF-268 CNS
# [54] = system: MOLT-4 leukemia
# [55] = system: MDA-MB-231 breast
# [56] = system: EKVX NSCLC
# [57] = system: SF-539 CNS
structure (smiles),measurement,setting,value
COc1ccc2[nH]c(=O)cc(-n3ncc(C(=O)/C=C/c4cc(OC)c(OC)c(OC)c4)c3C)c2c1,GI50,[1],12.4 µM
same,TGI,[1],42.9 µM
same,GI50,[2],11.5 µM
same,TGI,[2],24 µM
same,GI50,[3],4.33 µM
same,TGI,[3],16.6 µM
same,GI50,[4],3.29 µM
same,TGI,[4],10.8 µM
same,GI50,[5],3.91 µM
same,TGI,[5],18.5 µM
same,GI50,[6],3.15 µM
same,TGI,[6],11 µM
same,GI50,[7],3.54 µM
same,TGI,[7],13.5 µM
same,GI50,[8],2.5 µM
same,TGI,[8],7.3 µM
same,GI50,[9],3.28 µM
same,TGI,[9],13.6 µM
same,GI50,[10],3.5 µM
same,TGI,[10],13 µM
same,GI50,[11],3.57 µM
same,TGI,[11],15.7 µM
same,GI50,[12],10.3 µM
same,TGI,[12],22 µM
same,GI50,[13],5.62 µM
same,TGI,[13],18.9 µM
same,GI50,[14],2.91 µM
same,TGI,[14],15 µM
same,GI50,[15],11.5 µM
same,TGI,[15],52.2 µM
same,GI50,[16],6.06 µM
same,TGI,[16],18.7 µM
same,GI50,[17],3.24 µM
same,TGI,[17],> 100 µM
same,GI50,[18],19.1 µM
same,TGI,[18],36.3 µM
same,GI50,[19],8.02 µM
same,TGI,[19],20.9 µM
same,GI50,[20],11 µM
same,TGI,[20],25.3 µM
same,GI50,[21],11.1 µM
same,TGI,[21],25.4 µM
same,GI50,[22],10 µM
same,TGI,[22],38 µM
same,GI50,[23],4.64 µM
same,TGI,[23],16.6 µM
same,GI50,[24],7.17 µM
same,TGI,[24],20.2 µM
same,GI50,[25],6.59 µM
same,TGI,[25],43.6 µM
same,GI50,[26],8.96 µM
same,TGI,[26],95.2 µM
same,GI50,[27],2.79 µM
same,TGI,[27],9.94 µM
same,GI50,[28],3.99 µM
same,TGI,[28],15.1 µM
same,GI50,[29],13.2 µM
same,TGI,[29],30.1 µM
same,GI50,[30],12 µM
same,TGI,[30],36.5 µM
same,GI50,[31],2.75 µM
same,TGI,[31],9.83 µM
same,GI50,[32],3.46 µM
same,TGI,[32],12.3 µM
same,GI50,[33],3.6 µM
same,TGI,[33],13.3 µM
same,GI50,[34],5.26 µM
same,TGI,[34],17.4 µM
same,GI50,[35],3.88 µM
same,TGI,[35],29 µM
same,GI50,[36],11.2 µM
same,TGI,[36],26.4 µM
same,GI50,[37],11.4 µM
same,TGI,[37],34.9 µM
same,GI50,[38],7.41 µM
same,TGI,[38],21.7 µM
same,GI50,[39],6.82 µM
same,TGI,[39],19.9 µM
same,GI50,[40],4.2 µM
same,TGI,[40],> 100 µM
same,GI50,[41],3.81 µM
same,TGI,[41],14.1 µM
same,GI50,[42],11.2 µM
same,TGI,[42],23.4 µM
same,GI50,[43],3.19 µM
same,TGI,[43],11.9 µM
same,GI50,[44],8.64 µM
same,TGI,[44],29.9 µM
same,GI50,[45],12.5 µM
same,TGI,[45],26.6 µM
same,GI50,[46],3.46 µM
same,TGI,[46],13.5 µM
same,GI50,[47],4.04 µM
same,TGI,[47],13.9 µM
same,GI50,[48],3.59 µM
same,TGI,[48],15.6 µM
same,GI50,[49],3.47 µM
same,TGI,[49],13.8 µM
same,GI50,[50],2.76 µM
same,TGI,[50],16.8 µM
same,GI50,[51],4.94 µM
same,TGI,[51],17.2 µM
same,GI50,[52],5.23 µM
same,TGI,[52],20 µM
same,GI50,[53],10.4 µM
same,TGI,[53],34.8 µM
same,GI50,[54],3.81 µM
same,TGI,[54],64.9 µM
same,GI50,[55],5.4 µM
same,TGI,[55],18.6 µM
same,GI50,[56],5.16 µM
same,TGI,[56],20.1 µM
same,GI50,[57],2.68 µM
same,TGI,[57],9.09 µM
